# Where two headings read alike, the source gives them in different places.
# Legend:
# [1] = tested on: Mycosphaerella graminicola; test: Example G: in vivo test on Mycosphaerella graminicola (wheat leaf blotch disease); conditions: Zymoseptoria tritici, wheat plants sprayed 24 hours before inoculation, scored after 21 to 28 days, read-out: % Wirkungsgrad
# How it was run: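 Scipion wheat at first-leaf stage (10 cm) was sprayed with aqueous active-substance suspension, then inoculated 24 hours later with Mycosphaerella graminicola spores (500,000 spores per ml) from 7 day-old culture. Disease was scored after 21 to 28 days against untreated sprayed controls.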
# [2] = tested on: Puccinia recondita; test: Example F: in vivo test on Puccinia recondita (wheat brown rust); conditions: 240 h, wheat plants sprayed 24 hours before inoculation, scored after 10 days, read-out: % Wirkungsgrad
# Description: In Vivo Test on Puccinia Recondita (Wheat Brown Rust) An aqueous suspension of the active substance was prepared by homogenization of a mixture of acetone/Tween/dimethyl sulphoxide and subsequent dilution with water to the desired concentration. Wheat plants (variety: Scipion) are sown in cultivation dishes on a peat-pozzolanic earth substrate (50/50) at 12° C. and sprayed at the first-leaf stage (10 cm size) with the aqueous suspension described above. As a control, plants are sprayed with an aqueous solution with no active substance. After 24 hours the plants are inoculated by spraying with an aqueous suspension of Puccinia recondita spores (100,000 spores per ml). The spores are derived from a 10 day-old infected wheat crop and are suspended in water with 2.5 ml/l Tween. […] After 10 days they are scored in comparison with the control plants.
# [3] = tested on: Venturia inaequalis; test: Example O: in vivo test on Venturia inaequalis (apple scab/protective); conditions: 240 h, protective, assessment 10 days after inoculation, read-out: % Wirkungsgrad
# How it was run: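 Protective test: active substance mixed with solvent and alkylaryl polyglycol ether emulsifier, diluted with water, and sprayed on young plants at the stated dosage before Venturia inaequalis inoculation. Scab assessed 10 days after inoculation.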
# [4] = physchem
# [5] = tested on: Botrytis cinerea; test: Example B: in vivo test on Botrytis cinerea (grey mould on cucumbers); conditions: cucumber plants sprayed 24 hours before inoculation, scored after 5-7 days, read-out: % Wirkungsgrad
# Description: In Vivo Test on Botrytis Cinerea (Grey Mould on Cucumbers) An aqueous suspension of the active substance was prepared by homogenization of a mixture of acetone/Tween/dimethyl sulphoxide and subsequent dilution with water to the desired concentration. Cucumber plants (variety: Vert petit de Paris) are sown in cultivation dishes on a peat-pozzolanic earth substrate (50/50) at 18-20° C. and sprayed at the cotyledon stage Z11 with the aqueous suspension described above. As a control, plants are sprayed with an aqueous solution with no active substance. […] The spores are derived from a 15 day-old culture which are suspended in the following nutrient solution: • 20 g/l gelatine • 50 g/l D-fructose • 2 g/l NH4NO3 • 1 g/l KH2PO4 The inoculated cucumber plants are kept for 5-7 days in a climatic chamber at […] After 5-7 days they are scored in comparison with the control plants.
# [6] = tested on: Plasmopara viticola; test: Example N: in vivo test on Plasmopara viticola (downy mildew, vine/protective); conditions: 144 h, vine, protective, assessment 6 days after inoculation, read-out: % Wirkungsgrad
# How it was run: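 Protective test: young vine plants were sprayed with active substance diluted in water from a solvent/alkylaryl polyglycol ether emulsifier concentrate at the stated dosage, then inoculated with P. viticola. Plants were moistened and kept 1 day in an incubation cabin, and assessed 6 days after inoculation.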
# [7] = tested on: Fusarium proliferatum; test: Example I: production of fumonisin FB1 by Fusarium proliferatum (microtitre plates); format: cell-based; conditions: 120 h
# [8] = tested on: Peronospora parasitica; test: Example A: in vivo test on Peronospora parasitica (downy mildew on white cabbage); conditions: Hyaloperonospora parasitica, 120 h, cabbage plants sprayed 24 hours before inoculation, scored after 5 days, read-out: % Wirkungsgrad
# How it was run: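 Cabbage plants (Eminence) at cotyledon stage sprayed with aqueous compound suspension (acetone/Tween/DMSO, diluted with water), then inoculated 24 h later with P. parasitica spores at 50,000 spores/ml. After 5 days in moist atmosphere at ca. 20 °C, disease scored against untreated sprayed controls.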
# [9] = tested on: Cochliobolus miyabeanus; test: Example X: in vivo test on Cochliobolus miyabeanus (brown spot disease, rice/protective); conditions: Bipolaris oryzae, 96 h, read-out: % Activity level
# [10] = tested on: Pyricularia oryzae; test: whole plant or invertebrate; format: in vivo; conditions: 120 h, read-out: % Activity level
# [11] = tested on: Sphaerotheca fuliginea; test: Example D: in vivo test on Sphaerotheca fuliginea (powdery mildew on cucumber); conditions: Podosphaera fuliginea, 288 h, cucumber plants sprayed 24 hours before inoculation, scored after 12 days, read-out: % Wirkungsgrad
# How it was run: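 Cucumber plants at cotyledon stage Z10 were sprayed with the compound suspended in acetone/Tween/DMSO diluted with water. After 24 hours they were inoculated with Sphaerotheca fuliginea spores (100,000/ml) and incubated at ca. 20/25° C. and 60/70% RH. Disease was scored after 12 days against untreated sprayed controls.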
# [12] = tested on: Fusarium graminearum; test: microbe, parasite or virus in culture; format: cell-based
# [13] = tested on: Aspergillus parasiticus; test: microbe, parasite or virus in culture; format: cell-based; conditions: 168 h
# [14] = tested on: Botrytis cinerea; test: Example P: in vivo test on Botrytis cinerea (gray mould on bean/protective); conditions: 48 h, bean, protective, 250 ppm active substance, assessed 2 days after inoculation, read-out: % Wirkungsgrad (activity level)
# How it was run: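 Protective test: young bean plants sprayed with the active substance preparation (emulsifier-based concentrate diluted in water) at the stated dosage. Once dry, each leaf received 2 agar pieces bearing Botrytis cinerea. Infection blotch size assessed 2 days after inoculation.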
# [15] = tested on: Alternaria solani; test: Example M: in vivo test on Alternaria solani (leaf blotch disease/tomato/protective); conditions: 168 h, tomato, protective, 500 ppm active substance, assessed 7 days after inoculation, read-out: % Wirkungsgrad (activity level)
# How it was run: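 Protective test: young tomato plants sprayed with active substance (in DMF with alkylaryl polyglycol ether emulsifier, diluted in water) at the stated dosage, then inoculated with Alternaria solani. Disease assessed 7 days after inoculation.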
# [16] = tested on: Sphaerotheca fuliginea; test: Example L: in vivo test on Sphaerotheca fuliginea (powdery mildew on cucumber/protective); conditions: Podosphaera fuliginea, 168 h, cucumber, protective, assessment 7 days after inoculation, read-out: % Wirkungsgrad
# How it was run: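 Young cucumber plants sprayed at stated dosage with compound in DMF/alkylaryl polyglycol ether emulsifier diluted in water; inoculated with S. fuliginea spores one day later. Kept in greenhouse at 70% relative humidity, 23° C; protective activity assessed 7 days after inoculation.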
# [17] = tested on: Rhizoctonia solani; test: Example W: in vivo test on Rhizoctonia solani (sheath blight in rice/protective); conditions: 96 h, rice, protective, 250 ppm active substance, assessed 4 days after inoculation, read-out: % Activity level
# Description: Solvent: 28.5 parts by weight acetone Emulsifier: 1.5 parts by weight alkylaryl polyglycol ethers For the preparation of a suitable active substance preparation, 1 part by weight of active substance is mixed with the stated quantities of solvent and emulsifier and the concentrate is diluted to the desired concentration with water. For the testing for protective activity, young rice plants are sprayed with the active substance preparation at the stated application dosage. One day after the treatment, the plants are inoculated with hyphae of Rhizoctonia solani. […] 4 days after the inoculation, the assessment takes place.
# [18] = LogPA (logP of the stated pure compound or, in a mixture, of the main isomer, 1-substituted 3-aryl-1H-pyrazole)
# [19] = Fusarium proliferatum growth, OD 620, 5 days, read-out: % Inhibition des Pilzwachstums bei 50 μM
# [20] = Fusarium proliferatum, 5 days at 20° C., HPLC-MS/MS, read-out: % Inhibition der FB1 produktion bei 50 μM
# [21] = 72 h, read-out: % Inhibition des Pilzwachstums bei 50 μM
# [22] = 168 h, read-out: % Inhibition der DON/AcDON produktion bei 50 μM
compound,measurement,setting,value
4-[3-(4-fluorophenyl)-1-isobutyl-1H-pyrazol-4-yl]-N-isopropylpyrimidin-2-amine [[I-h-1]],logP (pH 2.7),pH 2.7,1.81
COCC(=O)Nc1cc(-c2cn(C(C)C)nc2-c2ccc(F)cc2)ccn1 [Compound 40],pest or weed control at 500 ppm,[1],81%
same,pest or weed control at 500 ppm,[2],86%
same,pest or weed control at 100 ppm,[3],97%
same,chromatographic logP,[4]; [18],2.59
same,pest or weed control at 500 ppm,[5],100%
same,pest or weed control at 100 ppm,[6],72%
same,inhibition at 50 µM,[7]; [19],98%
same,inhibition at 50 µM,[7]; [20],100%
same,pest or weed control at 500 ppm,[8],98%
same,pest or weed control at 250 ppm,[9],85%
same,pest or weed control at 250 ppm,[10],95%
same,pest or weed control at 500 ppm,[11],100%
same,inhibition at 50 µM,[12]; [21],100%
same,inhibition at 50 µM,[12]; [22],100%
same,inhibition at 50 µM,"[13]; 50 μM, 7 days at 20° C., read-out: Inhibition der Aflatoxin produktion bei 50 μM",99%
same,inhibition at 50 µM,[13]; read-out: % Inhibition des Pilzwachstums bei 50 μM,88%
same,pest or weed control at 250 ppm,[14],100%
CC(C)n1cc(-c2ccnc3ccccc23)c(-c2ccc(F)cc2)n1 [Compound 44],pest or weed control at 500 ppm,[1],81%
same,pest or weed control at 500 ppm,[2],71%
same,chromatographic logP,[4]; [18],2.24
same,pest or weed control at 500 ppm,[5],71%
same,inhibition at 50 µM,[7]; [19],33%
same,inhibition at 50 µM,[7]; [20],100%
same,pest or weed control at 500 ppm,[8],78%
same,pest or weed control at 500 ppm,[11],98%
NC(=O)c1cc(-c2cn(C3CCCCO3)nc2-c2ccc(F)cc2)ccn1 (stereo not drawn) [Compound 93],pest or weed control at 500 ppm,[2],83%
same,chromatographic logP,[4]; [18],2.46
Fc1ccc(-c2nn(CC3CC3)cc2-c2ccncc2)cc1 [Compound 126],pest or weed control at 500 ppm,[2],75%
same,pest or weed control at 100 ppm,[3],98%
same,chromatographic logP,[4]; [18],1.33
same,pest or weed control at 100 ppm,[6],81%
same,pest or weed control at 500 ppm,[8],89%
same,pest or weed control at 500 ppm,[11],85%
same,pest or weed control at 500 ppm,[15],95%
same,pest or weed control at 500 ppm,[16],95%
same,pest or weed control at 250 ppm,[14],100%
C#CCn1nc(-c2ccc(F)cc2)c(-c2ccncc2)c1C [Compound 171],pest or weed control at 500 ppm,[1],93%
same,pest or weed control at 500 ppm,[2],94%
same,chromatographic logP,[4]; LogPA,2.51
same,pest or weed control at 500 ppm,[5],71%
same,pest or weed control at 500 ppm,[8],91%
same,pest or weed control at 500 ppm,[11],100%
same,pest or weed control at 500 ppm,[15],95%
same,pest or weed control at 500 ppm,[16],100%
same,pest or weed control at 250 ppm,[14],84%
O=C(Nc1cc(-c2cn(CCCl)nc2-c2ccc(F)cc2)ccn1)C1CC1 [Compound 221],pest or weed control at 100 ppm,[3],91%
same,chromatographic logP,[4]; LogPA,2.1
same,inhibition at 50 µM,[7]; [19],99%
same,inhibition at 50 µM,[7]; [20],100%
same,pest or weed control at 250 ppm,[9],80%
same,pest or weed control at 250 ppm,[10],92%
same,inhibition at 50 µM,[12]; [21],100%
same,inhibition at 50 µM,[12]; [22],100%
same,pest or weed control at 500 ppm,[16],100%
same,pest or weed control at 250 ppm,[17],100%
same,pest or weed control at 250 ppm,[14],100%
"Cc1cc(F)ccc1-c1c(-c2ccncc2)cnn1C1CCCCO1 (stereo not drawn) [[X-5], 4-[5-(4-fluoro-2-methylphenyl)-1-(tetrahydro-2H-pyran-2-yl)-1H-pyrazol-4-yl]pyrid]",LogP (pH 2.3),,1.40
"Cc1cc(-c2c(-c3ccncc3)cnn2C2CCCCO2)ccc1F (stereo not drawn) [[X-7], 4-[5-(4-fluoro-3-methylphenyl)-1-(tetrahydro-2H-pyran-2-yl)-1H-pyrazol-4-yl]pyrid]",LogP (pH 2.3),,1.47
CC(=O)Nc1ccc(-c2c(-c3ccncc3)cnn2C2CCCCO2)cc1 (stereo not drawn) [[X-13]],LogP (pH 2.3),,0.97
Mixture of 4-bromo-3-(4-fluorophenyl)-1-isopropyl-1H-pyrazole and 4-bromo-5-(4-fluoro-phenyl)-1-isopropyl-1H-pyrazole [[VI-1]],logP (pH 2.7),pH 2.7,3.96
same,"logP (pH 2.7), minor isomer",pH 2.7,3.68
N-Benzyl-4-[3-(4-fluorophenyl)-1-isopropyl-1H-pyrazol-4-yl]pyrimidin-2-amine [[I-f-1]],logP (pH 2.7),pH 2.7,3.31

# — patent US20110183978A1, “Phenylpyri(mi)dinylazoles” (Bayer CropScience AG, priority 2009, published 2011)
